Laboratory results: paper PMC4876444, “Two-Photon Enzymatic Probes Visualizing Sub-cellular/Deep-brain Caspase Activities in Neurodegenerative Models” (Scientific Reports, 2016)

Tests used:
[1] = tested on: caspase-3/-7-like activities in brain slices; assay: TPFM of caspase-3 activation in brain slices of ethanol-intoxicated mouse; conditions: 200-μm-thick brain sections of ethanol-intoxicated 7-day-old C57BL/6 mice, probe 120 μM, 3 h, 37 °C, Z-axis scanning TPFM
Method: Figure 4 Imaging endogenous caspase activities in deep tissues. (a) TPFM of caspase-3 activation in brain slices of ethanol-intoxicated 7-day-old C57BL/6 mouse using C3RA (120 μM, 3 h). Top: 3D images of the mouse brain slice taken along the Z-axis from 0 to 160 μm at 10x magnification. Bottom: images taken at a depth of 120 μm at 40x magnification. […]: control slices (saline-treated); panels 2/6/4/8: treated with caspase-3/7 inhibitor I (200 μM, 3 h). Scale bar = 50 μm. (b) RFU readings extracted from (a) (FTPFM, blue bars) versus those from in vitro enzymatic assays using lysates from the same brain slices (RFU, orange bars). The signal from saline controls was set as “0” and that from ethanol-treated samples was set as “1” in RFU quantification. Due to the base-level active caspase-3 in the saline controls, negative readings were shown with inhibitor-treated samples. (c) WB analysis of caspase-3/-1/-8 activation in lysates of the same mouse brain slices shown in (a). (d) Normalized RFU readings from in vitro enzymatic assays using brain lysates (300 μg) of saline/ethanol treated mice after incubation with C1RB/C3RA/C8RA (6 μM) for 1 h at 37 °C.
All two-photon images were taken on a Leica TCS SP5X Confocal Microscope System. […]

[2] = tested on: NIH/3T3, BV2 and HeLa cells; assay: XTT cytotoxicity assay; assay type: cell-based, mouse, human; conditions: XTT assay, 12, 30, 60, 120 μM, 24 h
Method: Supplementary Figure 4. Cytotoxicity of two-photon enzymatic probes (12, 30, 60, 120 μM) in mammalian cells (NIH/3T3, BV2 and HeLa) after incubation for 24 h, as determined by XTT assay. […]
Detection of caspase activities in mammalian cells and tissues
Cell culture. The mouse embryonic fibroblast cell line (NIH/3T3), mouse microglial cell line (BV2) and human epithelial carcinoma cell line (HeLa) used in our experiments were cultured in Dulbecco’s Modified Eagle's Medium (DMEM) supplemented with 10% (for NIH/3T3 and HeLa) or 5% (for BV2) fetal bovine serum (FBS), 100.0 mg/L streptomycin and 100 IU/mL penicillin in a humidified atmosphere of 5% CO2 at 37 °C.
XTT assay. The cytotoxicity of our probes was determined by using the XTT colorimetric cell proliferation kit (Roche) following manufacturer’s guidelines. Briefly, NIH/3T3, BV2 and HeLa cells were seeded in 20~30% confluency (since they will reach >50% confluency within 24 h) into 96-well plates and incubated overnight before the addition of probes with concentrations of 12 μM, 30 μM, 60 μM and 120 μM, respectively. Probes were applied from DMSO stocks whereby DMSO never exceeded 1% in the final solution. The same volume of DMSO was used as a negative control; and the same volume of STS (200 nM) was used as a positive control. After a total treatment time of 24 h, proliferation was assayed using the XTT assay (Supplementary Fig. 4). […]

## CC(=O)N[C@@H](CC(=O)O)C(=O)N[C@@H](CCC(=O)O)C(=O)N[C@H](C(=O)N[C@@H](CC(=O)O)C(=O)Nc1ccc2cc(C(C)=O)ccc2c1)C(C)C [C3RA, Ac-DEVD-AAN]
[1]
  tissue depth of detection of caspase-3/-7-like activities: ≤ 160 μm
other
  λex (absorption/excitation maximum): 316 nm
[2]
  cytotoxicity: minimally cytotoxic
